According to PubChem BioAssay (NCI):
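Here, GI50 denotes the concentration required for 50% inhibition of growth. TGI marks complete inhibition of growth.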

Assays:
Test in all cases: DTP human tumour cell line panel, 384-well format
[1] = test system: 786-0 renal
[2] = test system: A498 renal
[3] = test system: A549 NSCLC
[4] = test system: ACHN renal
[5] = test system: BT-549 breast
[6] = test system: COLO 205 colon
[7] = test system: DU-145 prostate
[8] = test system: EKVX NSCLC
[9] = test system: HCT-116 colon
[10] = test system: HCT-15 colon
[11] = test system: HL-60(TB) leukemia
[12] = test system: HOP-62 NSCLC
[13] = test system: HS 578T breast
[14] = test system: IGROV1 ovarian
[15] = test system: K-562 leukemia
[16] = test system: KM12 colon
[17] = test system: LOX IMVI melanoma
[18] = test system: M14 melanoma
[19] = test system: MALME-3M melanoma
[20] = test system: MDA-MB-231 breast
[21] = test system: MDA-MB-468 breast
[22] = test system: MOLT-4 leukemia
[23] = test system: NCI-H23 lung
[24] = test system: NCI-H322M lung
[25] = test system: NCI-H460 NSCLC
[26] = test system: NCI/ADR-RES ovarian
[27] = test system: OVCAR-4 ovarian
[28] = test system: PC-3 prostate
[29] = test system: RPMI-8226 leukemia
[30] = test system: RXF 393 renal
[31] = test system: SF-268 CNS
[32] = test system: SF-295 CNS
[33] = test system: SF-539 CNS
[34] = test system: SK-MEL-2 melanoma
[35] = test system: SK-MEL-28 melanoma
[36] = test system: SK-MEL-5 melanoma
[37] = test system: SK-OV-3 ovarian
[38] = test system: SN12C renal
[39] = test system: SNB-19 CNS
[40] = test system: SNB-75 CNS
[41] = test system: SR leukemia
[42] = test system: SW-620 colon
[43] = test system: T-47D breast
[44] = test system: U251 glioblastoma
[45] = test system: UACC-257 melanoma
[46] = test system: UACC-62 melanoma
[47] = test system: UO-31 renal

## Cc1cc(Nc2cc(N)ncn2)c(=O)n2c1C(=O)NC21CCCCC1
[1]
  GI50: > 100 µM
  TGI: > 100 µM
[2]
  GI50: > 100 µM
  TGI: > 100 µM
[3]
  GI50: > 100 µM
  TGI: > 100 µM
[4]
  GI50: > 100 µM
  TGI: > 100 µM
[5]
  GI50: > 76.9 µM
  TGI: > 100 µM
[6]
  GI50: > 100 µM
  TGI: > 100 µM
[7]
  GI50: > 100 µM
  TGI: > 100 µM
[8]
  GI50: > 100 µM
  TGI: > 100 µM
[9]
  GI50: > 100 µM
  TGI: > 100 µM
[10]
  GI50: > 100 µM
  TGI: > 100 µM
[11]
  GI50: > 100 µM
  TGI: > 100 µM
[12]
  GI50: > 100 µM
  TGI: > 100 µM
[13]
  GI50: > 100 µM
  TGI: > 100 µM
[14]
  GI50: > 100 µM
  TGI: > 100 µM
[15]
  GI50: > 100 µM
  TGI: > 100 µM
[16]
  GI50: > 100 µM
  TGI: > 100 µM
[17]
  GI50: > 100 µM
  TGI: > 100 µM
[18]
  GI50: > 100 µM
  TGI: > 100 µM
[19]
  GI50: > 100 µM
  TGI: > 100 µM
[20]
  GI50: > 100 µM
  TGI: > 100 µM
[21]
  GI50: > 100 µM
  TGI: > 100 µM
[22]
  GI50: > 100 µM
  TGI: > 100 µM
[23]
  GI50: > 100 µM
  TGI: > 100 µM
[24]
  GI50: > 100 µM
  TGI: > 100 µM
[25]
  GI50: > 100 µM
  TGI: > 100 µM
[26]
  GI50: > 100 µM
  TGI: > 100 µM
[27]
  GI50: > 100 µM
  TGI: > 100 µM
[28]
  GI50: > 100 µM
  TGI: > 100 µM
[29]
  GI50: > 62.6 µM
  TGI: > 100 µM
[30]
  GI50: > 100 µM
  TGI: > 100 µM
[31]
  GI50: > 100 µM
  TGI: > 100 µM
[32]
  GI50: > 100 µM
  TGI: > 100 µM
[33]
  GI50: > 100 µM
  TGI: > 100 µM
[34]
  GI50: > 100 µM
  TGI: > 100 µM
[35]
  GI50: > 100 µM
  TGI: > 100 µM
[36]
  GI50: > 100 µM
  TGI: > 100 µM
[37]
  GI50: > 100 µM
  TGI: > 100 µM
[38]
  GI50: > 100 µM
  TGI: > 100 µM
[39]
  GI50: > 100 µM
  TGI: > 100 µM
[40]
  GI50: > 100 µM
  TGI: > 100 µM
[41]
  GI50: > 69.7 µM
  TGI: > 100 µM
[42]
  GI50: > 100 µM
  TGI: > 100 µM
[43]
  GI50: > 100 µM
  TGI: > 100 µM
[44]
  GI50: > 100 µM
  TGI: > 100 µM
[45]
  GI50: > 100 µM
  TGI: > 100 µM
[46]
  GI50: > 100 µM
  TGI: > 100 µM
[47]
  GI50: > 100 µM
  TGI: > 100 µM
